Measurements as given in article PMC11274883, “Anticancer Effect of Pt^[sequence], Pt^II5MESS, Pt^II56MESS and Their Platinum(IV)-Dihydroxy Derivatives against Triple-Negative Breast Cancer and Cisplatin-Resistant Colorectal Cancer” (Cancers, 2024).

Assays:
HT29 cells [1] = test: Western blot protein expression; format: cell-based; settings: HT29, IC50, 72 h
Method: Protein extraction was then performed on ice. Media were collected in Eppendorf tubes, and centrifuged at 500× g for 5 min at 4 °C. Meanwhile, 200 µL of lysis RIPA buffer, made up of 150 mM NaCl, 50 mM Tris-HCl, pH 8.0, 0.1% Triton X-100, 0.5% sodium deoxycholate, 0.1% SDS and 1 mM sodium orthovanadate, was added to each well, the cells were scrapped into the buffer, and added to the media-derived pellets. The tubes were placed on the shaker for 10 min at 4 °C. Then, cell extracts were centrifuged at 12,000× g for 15 min at 4 °C, and the supernatants (containing the proteins) were collected. The Bio-Rad-DC protein assay (Bio-Rad, Hercules, CA, USA) was used to assess protein content. Laemmli protein sample buffer (4×) with β-mercaptoethanol (9%) was used to prepare a final protein concentration of 20 µg. The samples were then heated at 100 °C for 5 min. A final volume of 30 µL of each sample was added per well and subjected to SDS-PAGE using Bolt 4–12% Bis-Tris gel (Thermo Fisher, Eugene, OR, USA) at 80 V for 30 min and then 120 V for 60 min with PageRuler™ Prestained Protein or SeeBlue Prestained Protein Ladder (Thermo Fisher, Eugene, OR, USA). Proteins were subsequently transferred to a 0.2 µm PVDF membrane (Amersham, Cytiya) using a semi-dry blot transfer. The membrane was then blocked in 5% BSA in TBST, for 1 h and probed overnight at 4 °C with primary antibodies against several cell proliferation, apoptotic, anti-apoptotic, microtubule and autophagic protein markers listed in Table S7 as per the manufacturer’s protocol. The primary antibody was then removed, washed three times for 10 min with TBST and then membranes were treated with either mouse or rabbit HRP-coupled secondary antibodies (1/3000) for 1 h and 30 min. Protein band detection was then performed using the chemiluminescence ECL kit (Thermo Fisher, Eugene, OR, USA). Blot images were obtained using the Odyssey® FC imaging system (LI-COR Biosciences, Lincoln, NE, USA) and band intensities were quantified relatively to glyceraldehyde-3-phosphate dehydrogenase (GAPDH) and then normalised each replicate gel to its corresponding no treatment control using the ImageJ v1.53t software (National Institutes of Health, Bethesda, MD, USA). Each marker results from the same experiment or parallel experiment where the gels were processed in parallel. Three independent experiments per marker were conducted.

MDA−MB−231 cells = test: Label-free quantitative proteomics; format: cell-based, Homo Sapiens; settings: MDA−MB−231, IC50, 72 h
Method: (§1) The supernatant was then collected into 15 mL tubes, then the cells were washed with PBS and trypsinised. The detached cells were transferred to allocated tubes and centrifuged at 500× g for 5 min at 4 °C. Cell pellet was washed twice with PBS and then resuspended in 300 µL cell lysis buffer (RIPA) for 30 min on ice. Cell extracts were then centrifuged at 12,000× g for 15 min at 4 °C, and the supernatants (containing the proteins) were collected into Lo-Bind Eppendorf. The Bio-Rad protein assay (Bio-Rad, Hercules, CA, USA) was used to assess protein content. For protein extraction and delipidation 100 µL of the cell homogenate was moved to 1.7 mL Lo-Bind Eppendorf tubes and 450 µL methanol was added to the mixture and vortexed. Chloroform (150 µL) was next added and vortexed. Then, water (450 µL) was added to the mixture, vortexed and centrifuged for 5 min at 12,000× g, which formed the protein pellet at the organic/aqueous interface. The layer of chloroform was removed and then 400 µL of methanol was added. The sample was then vortexed and centrifuged at 12,000× g for 15 min. The supernatant was then aspirated and discarded. The pellet was then washed with methanol (400 µL). The supernatant was removed, and the pellets were air-dried overnight. Next, steps were performed for reduction, alkylation, and tryptic digestion of the protein. 0.1% RapiGest (Waters, Milford, MA, USA) in 50 mM aqueous ammonium bicarbonate (20 µL) was added to the air-dried pellet and vortexed for effective suspension. The pellet should completely dissolve. Then, 50 µL of 7 mM DTT in 50 mM aqueous ammonium bicarbonate was added, to give a final concentration of 5 mM DTT. Samples were then heated for 30 min at 60 °C and cooled to room temperature. Iodoacetamide (45 mM) in 50 mM aqueous ammonium bicarbonate was next added to give a concentration of 15 mM. The mixture was allowed to react in the dark for 30 min. Then, 10 ng/µL of Trypsin Gold, Mass spectrometry grade (Promega, NSW, Australia) was added for digestion to occur at room temperature overnight. And 50 µL of 4% (v/v) aqueous trifluoroacetic acid was then added to each tube. Samples were next heated for 45 min at 37 °C to effect decomposition of RapiGest. Samples were then centrifuged at 12,000× g for 10 min at 4 °C. Supernatants were then transferred to total recovery vials and run on a nanoAcquity Ultra-Performance Liquid Chromatography (UPLC) coupled with a Synapt G2-Si instrument (Waters, MA, USA) was used for label-free quantitative protein profiling. Nano-proteomics method is detailed in Method S1. Three independent experiments in triplicates were implemented, while all samples were analysed in a single run with a single injection (1 µL) for each trial. Mass spectrometry (MS) data were processed using Progenesis QI for proteomics (version 4.1, Nonlinear Dynamics, Newcastle upon Tyne, UK), and aligned using UniProt Homo Sapiens reference database IDEP9.6 utilised to cluster and retrieve the initial signature analyses. […] Enrichment studies were performed using gene lists that corresponded to the identified proteins. Overrepresentation analysis was performed based on Gene Ontology (GO) Biological Processes, GO Cellular Components, and GO Molecular Functions using iDEP. Enrichment maps and STRING apps were used to construct pathways networks and explore protein–protein interactions.

HT29 cells [2] = test: Label-free quantitative proteomics; format: cell-based, Homo Sapiens; settings: HT29, IC50, 72 h
Method: as §1

[3] = representative blot Figure S30G
[4] = representative blot Figure S30H

Cc1c(C)c2cccnc2c2ncccc12.N[C@H]1CCCC[C@@H]1N.O=[N+]([O-])[O-].O=[N+]([O-])[O-].[Pt+2] [Pt^II56MESS, [Pt(5,6-dimethyl-1,10-phenanthroline)(1S,2S-diaminocyclohexane)](NO3)2]
β-actin/GAPDH normalized to control (1) (HT29 cells [1]; representative blot Figure S28A): 0.4943 | β-tubulin/GAPDH normalized to control (1) (HT29 cells [1]; representative blot Figure S28B): 0.2182 | α-tubulin/GAPDH normalized to control (1) (HT29 cells [1]; representative blot Figure S28C): 0.04906 | p-AKT/AKT/GAPDH normalized to control (1) (HT29 cells [1]; representative blot Figure S29A): 0.5359 | p-ERK/ERK/GAPDH normalized to control (1) (HT29 cells [1]; representative blot Figure S29B): 0.8325 | p53/GAPDH normalized to control (1) (HT29 cells [1]; representative blot Figure S29C): 1.014 | p21/GAPDH normalized to control (1) (HT29 cells [1]; representative blot Figure S29D): 1.281 | Bax/GAPDH normalized to control (1) (HT29 cells [1]; representative blot Figure S30A): 2.693 | Bcl2/GAPDH normalized to control (1) (HT29 cells [1]; representative blot Figure S30B): 0.04576 | Cyt C/GAPDH normalized to control (1) (HT29 cells [1]; representative blot Figure S30C): 6.706 | Procaspase 8/GAPDH normalized to control (1) (HT29 cells [1]; representative blot Figure S30D): 0.2505 | Cleaved BID/GAPDH normalized to control (1) (HT29 cells [1]; representative blot Figure S30E): 2.821 | Procaspase 9/GAPDH normalized to control (1) (HT29 cells [1]; representative blot Figure S30F): 0.2717 | Cleaved caspase 3/GAPDH normalized to control (1) (HT29 cells [1]; [3]): 5.099 | Procaspase 3/GAPDH normalized to control (1) (HT29 cells [1]; [3]): 0.8936 | Cleaved PARP-1/GAPDH normalized to control (1) (HT29 cells [1]; [4]): 7.064 | PARP-1/GAPDH normalized to control (1) (HT29 cells [1]; [4]): 0.317 | Beclin1/GAPDH normalized to control (1) (HT29 cells [1]; representative blot Figure S31A): 5.632 | ATG5/GAPDH normalized to control (1) (HT29 cells [1]; representative blot Figure S31B): 0.6185 | ATG16L1/GAPDH normalized to control (1) (HT29 cells [1]; representative blot Figure S31C): 1.309 | ATG9A/GAPDH normalized to control (1) (HT29 cells [1]; representative blot Figure S31D): 1.516 | ATG4B/GAPDH normalized to control (1) (HT29 cells [1]; representative blot Figure S31E): 0.7106 | LC3B/GAPDH normalized to control (1) (HT29 cells [1]; representative blot Figure S31F): 1.044 | DEPs exhibited by the treatment (UpSet plot) (MDA−MB−231 cells): 165 | number of downregulated differentially expressed proteins (MDA−MB−231 cells; p < 0.05, fold change > 2): 183 | number of upregulated differentially expressed proteins (MDA−MB−231 cells; p < 0.05, fold change > 2): 132 | DEPs exhibited by the treatment (UpSet plot) (HT29 cells [2]): 225 | number of downregulated differentially expressed proteins (HT29 cells [2]; p < 0.05, fold change > 2): 228 | number of upregulated differentially expressed proteins (HT29 cells [2]; p < 0.05, fold change > 2): 200
